Measured values published in paper PMC7155171, “Probing the Open Global Health Chemical Diversity Library for Multistage-Active Starting Points for Next-Generation Antimalarials” (ACS Infectious Diseases, 2020).
Like-named read-outs stand apart in the source and are kept apart here.

Legend:
[1] = system: P. falciparum Dd2 (PfLuc) line expressing firefly luciferase, asexual blood stage; assay: microbe, parasite or virus in culture; format: cell-based, Plasmodium falciparum; settings: Plasmodium falciparum
P. falciparum Dd2 = assay: SYBR green I asexual blood stage proliferation assay (96 h); format: cell-based, Plasmodium falciparum; settings: for IC50 / Emax: Plasmodium falciparum
[2] = DD2, read-out: CDD P. falciparum Luciferase ABS 11-pt Reconfirmation Dose Response (48hr): IC50 (μM), 11-pt dose response, 48hr
[3] = DD2, 8-pt dose response, 96hr, read-out: CDD P. falciparum Luciferase ABS 8-pt Reconfirmation Dose Response (96hr): IC50
[4] = DD2, 8-pt dose response, 96hr, read-out: CDD P. falciparum Luciferase ABS 8-pt Reconfirmation Dose Response (96hr): Maximum inhibition (%)
[5] = DD2, 11-pt dose response, 48hr, read-out: CDD P. falciparum Luciferase ABS 11-pt Reconfirmation Dose Response (48hr): Maximum inhibition (%)
[6] = DD2, 11-pt dose response, 96hr, read-out: CDD P. falciparum Luciferase ABS 11-pt Reconfirmation Dose Response (96hr): IC50
[7] = DD2, 11-pt dose response, 96hr, read-out: CDD P. falciparum Luciferase ABS 11-pt Reconfirmation Dose Response (96hr): Maximum inhibition (%)
[8] = DD2, Sybr Green I, 11-pt dose response, 96hr, read-out: CDD P. falciparum Sybr Green I ABS 11-pt Reconfirmation Dose Response (96hr): IC50
[9] = DD2, Sybr Green I, 11-pt dose response, 96hr, read-out: CDD P. falciparum Sybr Green I ABS 11-pt Reconfirmation Dose Response (96hr): Maximum inhibition (%)
[10] = DD2, read-out: P. falciparum Luciferase ABS 11-pt Reconfirmation Dose Response (48hr): IC50, 11-pt dose response, 48hr
[11] = DD2, 8-pt dose response, 96hr, read-out: P. falciparum Luciferase ABS 8-pt Reconfirmation Dose Response (96hr): IC50
[12] = DD2, 8-pt dose response, 96hr, read-out: P. falciparum Luciferase ABS 8-pt Reconfirmation Dose Response (96hr): Maximum inhibition (%)
[13] = DD2, 11-pt dose response, 48hr, read-out: P. falciparum Luciferase ABS 11-pt Reconfirmation Dose Response (48hr): Maximum inhibition (%)
[14] = DD2, 11-pt dose response, 96hr, read-out: P. falciparum Luciferase ABS 11-pt Reconfirmation Dose Response (96hr): IC50
[15] = DD2, 11-pt dose response, 96hr, read-out: P. falciparum Luciferase ABS 11-pt Reconfirmation Dose Response (96hr): Maximum inhibition (%)
[16] = DD2, 11-pt dose response, 96hr, read-out: P. falciparum Sybr Green I ABS 11-pt Reconfirmation Dose Response (96hr): IC50
[17] = DD2, 11-pt dose response, 96hr, read-out: P. falciparum Sybr Green I ABS 11-pt Reconfirmation Dose Response (96hr): Maximum inhibition (%)

| SMILES | IC50 [1, 2] [µM] | IC50 [1, 3] [µM] | Emax [1, 4] [%] | Emax [1, 5] [%] | IC50 [1, 6] [µM] | Emax [1, 7] [%] | IC50 (P. falciparum Dd2; [8]) [nM] | Emax (P. falciparum Dd2; [9]) [%] | also measured |
| --- | --- | --- | --- | --- | --- | --- | --- | --- | --- |
| CC(C)c1nn(C)c(Cl)c1CNCC(O)c1cccc(F)c1 (stereo not drawn) [DDD01304823] | 3.48 | 0.58 | 92.1 | 89.6 | 1.39 | 98.7 | 3660 | 92.5 | – |
| CN(C)c1nc2c(c(NCc3cc(O)ncn3)n1)CCCC2 [DDD01252975] | 3.75 | 0.59 | 94 | 96 | 2.11 | 99.7 | 1820 | 99.1 | – |
| CN(Cc1cccc(O)c1)CC1CCCN(CCc2ccc(Cl)cc2)C1 (stereo not drawn) [DDD01257948] | 2.24 | 0.67 | 94.6 | 97.4 | 1.38 | 99.5 | 802 | 98 | – |
| CCc1ccc(CN(CCN(C)C)Cc2ccc(C)s2)nc1 [DDD01249772] | – | – | – | – | – | – | – | – | IC50 [1, 10]: 1.02 µM; IC50 [1, 11]: 1.2 µM; Emax [1, 12]: 90.5%; Emax [1, 13]: 95.2%; IC50 [1, 14]: 0.278 µM; Emax [1, 15]: 101%; IC50 (P. falciparum Dd2; [16]): 3000 nM; Emax (P. falciparum Dd2; [17]): 93.4% |
| CN(C)CCCNCCC(Cc1ccccc1)C1CCOC(C)(C)C1 (stereo not drawn) [DDD01026664, CN(C)CCCNCCC(Cc1ccccc1)C1CCOC(C)(C)C1] | – | – | – | – | – | – | – | – | IC50 ([1]; DD2, read-out: CDD P. falciparum Luc 11pt dose response (96hr, n=2): IC50 (μM), 96hr, 11-point, n=2): 0.11 µM; IC50 ([1]; DD2, read-out: CDD P. falciparum Luciferase 11pt dose response (48hr, n=2): IC50 (μM), 48hr, 11-point, n=2): 0.405 µM; Emax ([1]; DD2, 48hr, 11-point, read-out: CDD P. falciparum Luciferase ABS 11-pt Reconfirmation Dose Response (48hr): Maximum inhibition (%)): 98.1%; Emax ([1]; DD2, 96hr, 11-point, read-out: CDD P. falciparum Luciferase ABS 11-pt Reconfirmation Dose Response (96hr): Maximum inhibition (%)): 101%; CDD P. falciparum Sybr Green I ABS Dd2 Dose Response: Maximum measured (%) (P. falciparum Dd2; Dd2, 96 h): 98.8%; IC50 (P. falciparum Dd2; DD2, 96 h, read-out: CDD P. falciparum Sybr Green I ABS Dd2 Dose Response: IC50): 251 nM |
| CCN1CCN(C[C@@H]2CN(c3ncc(Cl)cc3F)C[C@@H]2CO)CC1 [DDD01246828] | 1.58 | 0.63 | 94.8 | 98.3 | 0.961 | 99.3 | 1110 | 100 | – |
| CC1(C)CC(N(Cc2cccnc2)Cc2cccc(F)c2)CC(C)(C)N1 [DDD01060979] | 3.32 | 0.3 | 88 | – | > 1.39 | 98.4 | 8550 | 79.9 | – |
| COc1ccc(CN2CCNC(=O)CC2)cc1SC(F)(F)F [DDD01074373] | – | – | – | – | – | – | – | – | IC50 [1, 10]: > 4.16 µM; IC50 [1, 11]: 1.28 µM; Emax [1, 13]: 57.7%; IC50 [1, 14]: 0.735 µM; Emax [1, 15]: 70.4%; IC50 (P. falciparum Dd2; [16]): > 4160 nM; Emax (P. falciparum Dd2; [17]): 51.3% |
| CC1CCCCN1C(=O)c1coc(COc2cccc3cnccc23)n1 (stereo not drawn) [DDD01245028] | 0.751 | 0.61 | 94 | 97 | 0.469 | 99.8 | 568 | 97.7 | – |
| Clc1cccc(C[C@@H]2NCCC[C@@H]2Nc2ccccc2)c1 [DDD01058682] | – | – | – | – | – | – | – | – | IC50 [1, 10]: 1.83 µM; IC50 [1, 11]: 1.21 µM; Emax [1, 12]: 94.7%; Emax [1, 13]: 99.1%; IC50 [1, 14]: 0.857 µM; Emax [1, 15]: 101%; IC50 (P. falciparum Dd2; [16]): 3390 nM; Emax (P. falciparum Dd2; [17]): 93.6% |
| Cc1nc(-c2ccc(F)c(F)c2)cc(C2CCNCC2)n1 [DDD01058356] | > 12.5 | 0.84 | 88.2 | 44.3 | 2.02 | 86.7 | 2100 | 68.9 | – |
| c1ccc(C[C@H]2CN(C3CCOCC3)CC[C@H]2OCC2CC2)cc1 [DDD01028772] | > 12.5 | 0.69 | 87 | 70.2 | 1.04 | 91.3 | 7170 | 69.9 | – |
| CC(C)N1CCC(NCc2cccnc2N(C)Cc2ccccc2)CC1 [DDD01257477] | > 12.5 | 0.45 | 89.2 | 61.1 | 3.84 | 87.8 | 163 | – | – |
| CN[C@@H]1CCC[C@@H](Oc2ccccc2Oc2ccc(C)cc2)[C@@H]1O [DDD01056673] | 1.83 | 0.52 | 96 | 97 | 0.625 | 99.7 | 2330 | 99.2 | – |
| Cc1ccc(C2(CN(C)Cc3sccc3C)CCNCC2)nc1 [DDD01252463] | > 12.5 | 0.73 | 78.8 | 41.3 | 1.59 | 81.7 | > 12500 | 57.2 | – |
| Cc1cccc(C)c1Nc1noc2c1CN(C(=O)c1ccn(C)n1)CC2 [DDD01057030] | 0.885 | 0.26 | 96.3 | 97.1 | 0.693 | 99.6 | 913 | 95.5 | – |
| COc1cc(CNCC(O)c2ccc(F)c(F)c2)cc2c1OCO2 (stereo not drawn) [DDD00408586] | 2.05 | 0.55 | 90.7 | 96.5 | 1.22 | 99.5 | 1890 | 97.2 | – |
| Cc1nc(-c2cc(Cl)cc3c2OC(CN)C3)c[nH]1 (stereo not drawn) [DDD01251343] | > 12.5 | 0.67 | – | -0.28 | 3.7 | 84.3 | > 1390 | – | – |
| O=C(c1ccccc1)C1CCN(Cc2cc3c(cc2O)CCC3)CC1 [DDD01073482] | 1.73 | 0.6 | 93.1 | 94.9 | 0.607 | 99.4 | 2300 | – | – |
| Brc1cccc(C2(CNCc3cc[nH]c3)CCOCC2)c1 [DDD01076928] | 1.56 | 0.82 | 85.7 | 86.3 | 0.694 | 99.3 | 5620 | – | – |
| CN1CCC(N(Cc2ccco2)S(=O)(=O)c2ccc(Br)cc2Cl)CC1 [DDD01063208] | > 12.5 | 0.58 | 76.6 | 21.3 | 2.19 | 81.7 | 10600 | 54.5 | – |
| Cc1ccccc1CNCC(O)c1ccc(OC(C)C)cc1 (stereo not drawn) [DDD01076008] | 3.39 | 0.89 | – | 93.9 | 1.47 | 99.7 | 3770 | – | – |
| Cc1ccc(CN(CCN(C)C)Cc2c(C)nc3sccn23)o1 [DDD01056924] | – | – | – | – | – | – | – | – | IC50 [1, 10]: > 12.5 µM; IC50 [1, 11]: 1.82 µM; Emax [1, 13]: 65.3%; IC50 [1, 14]: 2.43 µM; Emax [1, 15]: 88.8%; IC50 (P. falciparum Dd2; [16]): > 4160 nM; Emax (P. falciparum Dd2; [17]): 52.1% |
| Clc1ccccc1C1(c2ccnc(-c3ccncc3)n2)CCNCC1 [DDD01257938] | 4.26 | 0.31 | 93.5 | 98.2 | 0.482 | 99.5 | 2220 | 98.9 | – |
| COc1cccc(CN(C)Cc2[nH]c3ccccc3c2C)c1O [DDD01247848] | 1.95 | 0.44 | 94.4 | 95.9 | 0.908 | 98.6 | 1050 | 98 | – |
| Cc1cccc(C)c1Nc1noc2c1CN(C(=O)c1ccnn1C)CC2 [DDD01056796] | 0.425 | 0.14 | 96.7 | 98.3 | 0.328 | 101 | 266 | 96.3 | – |
| CC(N)Cc1ccccc1Sc1ccccc1 (stereo not drawn) [DDD01035540] | – | – | – | – | – | – | – | – | IC50 [1, 10]: 3.57 µM; IC50 [1, 11]: 1.63 µM; Emax [1, 12]: 92%; Emax [1, 13]: 89.6%; IC50 [1, 14]: 0.558 µM; Emax [1, 15]: 98.2%; IC50 (P. falciparum Dd2; [16]): 4170 nM; Emax (P. falciparum Dd2; [17]): 86.1% |
